For 32 compounds, inhibition results are on record in patent US20100105729A1, “ARYL-SUBSTITUTED HETEROCYCLIC PDE4 INHIBITORS AS ANTI-INFLAMMATORY AGENTS” (KALYPSYS, INC., priority 2006, published 2010).

Structures are written as SMILES.

In the assay the target is T1, PDE4B (Homo sapiens, UniProt Q07343).
T1 construct: hexa-histidine (His6) (N); made in house
T1 sequence (Q07343 330-659 limits assumed, species assumed): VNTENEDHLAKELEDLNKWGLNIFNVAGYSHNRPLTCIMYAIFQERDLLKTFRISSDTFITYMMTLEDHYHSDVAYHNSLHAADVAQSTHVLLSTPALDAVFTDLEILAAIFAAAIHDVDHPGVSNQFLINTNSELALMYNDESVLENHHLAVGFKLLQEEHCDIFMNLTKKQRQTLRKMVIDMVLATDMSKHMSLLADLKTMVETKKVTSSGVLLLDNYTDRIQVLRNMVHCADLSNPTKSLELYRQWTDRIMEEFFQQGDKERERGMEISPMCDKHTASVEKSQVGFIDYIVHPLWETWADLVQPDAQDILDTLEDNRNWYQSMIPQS
As to the kind of experiment: PDE4 IMAP Assay. In kind it is biochemical. The following applies: catalytic domain of PDE4B, fluorescence polarization. From the text: Compounds may be screened for functional potency in in vitro biochemical assays for their ability to inhibit the activity of phosphodiesterase (PDE) enzymes. A commercial PDE assay, Molecular Device's PDE IMAP assay, was modified and utilized to measure the inhibitory activity of compounds on PDE isoforms. The IMAP technology is based on the high affinity binding of phosphate by immobilized metal (MIII) coordination complexes on nanoparticles. This IMAP “binding reagent” complexes with phosphate groups on the nucleotide monophosphates generated in the reaction. Such binding causes a change in the rate of the molecular motion of the nucleotide, and results in an increase in the fluorescence polarization value observed for the fluorescent label attached to the substrate. PDE inhibitors prevent the generation of nucleotide monophosphates and the subsequent increase in polarization value observed for the fluorescent label attached to the substrate. The catalytic domain of PDE4B was fused to an amino-terminus hex-histadine affinity tag and purified. PDE4B enzyme was incubated with compounds for 10 minutes. Fluorescently labeled cyclic AMP substrates were then added to the PDE enzyme mix and incubated for 2 hours at room temperature. IMAP binding reagent was then added to the enzyme mix, incubated for 10-30 minutes and fluorescent polarization of the fluorescently labeled substrate was read either with the Perkin Elmer Viewlux or Molecular Devices Acquest or Analyst. Roflumilast and Rolipram are the positive controls used in the assay.
The inhibition is the relative decrease from the control value, in per cent. The low end stands for little suppression, the high end for strong suppression. Regarding `COc1ccc2nc(Cl)c(C3CC(c4ccc(OC)c(OC)c4)=NN3C(=O)c3ccco3)cc2c1` (centres unmarked) [Example 9, (5-(2-chloro-6-methoxyquinolin-3-yl)-3-(3,4-dimethoxyphenyl)-4,5-dihydro-1H-pyrazol-1-yl)(furan-2-yl)methanone], the inhibition at 10 µM was less than 50%.

The compound `COc1ccc(OC)c(C2CC(c3ccc(OC)c(OC)c3)=NN2S(=O)(=O)c2ccccc2)c1` (centres unmarked) [Example 88, 5-(2,5-dimethoxyphenyl)-3-(3,4-dimethoxyphenyl)-1-(phenylsulfonyl)-4,5-dihydro-1H-pyrazole] displayed an inhibition at 10 µM of less than 50%.

`COc1ccc(C2CC(c3ccc(OC)c(OC)c3)=NN2C(=O)CCCC(=O)O)cc1` (centres unmarked) [Example 66, 5-(3-(3,4-dimethoxyphenyl)-5-(4-methoxyphenyl)-4,5-dihydro-1H-pyrazol-1-yl)-5-oxopentanoic acid] returned an inhibition at 10 µM of less than 50%.

`COc1ccc(C2CC(c3ccc(OC)c(OC)c3)=NN2C(=O)c2ccccc2)cc1` (centres unmarked) [Example 36, (3-(3,4-dimethoxyphenyl)-5-(4-methoxyphenyl)-4,5-dihydro-1H-pyrazol-1-yl)(phenyl)methanone]: the inhibition at 10 µM is not below 50%.

The compound `COc1ccc(C2=NN(C(C)=O)C(c3cc4cc(C)ccc4nc3Cl)C2)cc1OC` (centres unmarked) [Example 74, 1-(5-(2-chloro-6-methylquinolin-3-yl)-3-(3,4-dimethoxyphenyl)-4,5-dihydro-1H-pyrazol-1-yl)ethanone] registered an inhibition at 10 µM of less than 50%.

The compound `COc1ccc(C2=NN(C(=O)CCC(=O)O)C(c3cccc(OC)c3OC)C2)cc1OC` (centres unmarked) [Example 69, 4-(5-(2,3-dimethoxyphenyl)-3-(3,4-dimethoxyphenyl)-4,5-dihydro-1H-pyrazol-1-yl)-4-oxobutanoic acid] yielded an inhibition at 10 µM of less than 50%.

For the compound `COc1ccc2cc(C3CC(c4ccc(OC)c(OC)c4)=NN3C(=O)CCC(=O)O)c(Cl)nc2c1` (centres unmarked) [Example 22, 4-(5-(2-chloro-7-methoxyquinolin-3-yl)-3-(3,4-dimethoxyphenyl)-4,5-dihydro-1H-pyrazol-1-yl)-4-oxobutanoic acid], the inhibition at 10 µM is less than 50%.

Compound `COc1ccc(C2CC(c3ccc(OC)c(OC)c3)=NN2C(=O)CCC(=O)O)cc1` (centres unmarked) [Example 97, 4-(3-(3,4-dimethoxyphenyl)-5-(4-methoxyphenyl)-4,5-dihydro-1H-pyrazol-1-yl)-4-oxobutanoic acid] displayed an inhibition at 10 µM of less than 50%.

Regarding `COc1ccc(C2=NN(C(=O)c3ccc(Br)o3)C(c3ccc(C)cc3)C2)cc1OC` (centres unmarked) [Example 48, (5-bromofuran-2-yl)(3-(3,4-dimethoxyphenyl)-5-p-tolyl-4,5-dihydro-1H-pyrazol-1-yl)methanone], the inhibition at 10 µM was not below 50%.

Consider `COc1ccc(C2=NN(S(=O)(=O)c3ccc(C)cc3)C(c3ccccc3Cl)C2)cc1OC` (centres unmarked) [Example 60, 5-(2-chlorophenyl)-3-(3,4-dimethoxyphenyl)-1-tosyl-4,5-dihydro-1H-pyrazole], for which the inhibition at 10 µM was less than 50%.

Compound `COc1ccc(C2=NN(C(C)=O)C(c3cn(-c4ccccc4)nc3-c3ccccc3)C2)cc1OC` (centres unmarked) [Example 73, 1-(3-(3,4-dimethoxyphenyl)-5-(1,3-diphenyl-1H-pyrazol-4-yl)-4,5-dihydro-1H-pyrazol-1-yl)ethanone] displayed an inhibition at 10 µM of less than 50%.

As to `COc1ccc(C2=NN(C(=O)c3ccccc3Cl)C(c3ccc(C)cc3)C2)cc1OC` (centres unmarked) [Example 32, (2-chlorophenyl)(3-(3,4-dimethoxyphenyl)-5-p-tolyl-4,5-dihydro-1H-pyrazol-1-yl)methanone], the inhibition at 10 µM is less than 50%.

The compound `COc1ccc(C2=NN(C(=O)c3cc(OC)c(OC)c(OC)c3)C(c3ccc(Cl)cc3)C2)cc1OC` (centres unmarked) [Example 43, (5-(4-chlorophenyl)-3-(3,4-dimethoxyphenyl)-4,5-dihydro-1H-pyrazol-1-yl)(3,4,5-trimethoxyphenyl)methanone] showed an inhibition at 10 µM not below 50%.

For the compound `COc1ccc(OC)c(C2CC(c3ccc(OC)c(OC)c3)=NN2S(=O)(=O)c2ccc(C)cc2)c1` (centres unmarked) [Example 89, 5-(2,5-dimethoxyphenyl)-3-(3,4-dimethoxyphenyl)-1-tosyl-4,5-dihydro-1H-pyrazole], the inhibition at 10 µM is less than 50%.

`COc1ccc2nc(Cl)c(C3CC(c4ccc(OC)c(OC)c4)=NN3C(=O)c3ccccc3Cl)cc2c1` (centres unmarked) [Example 6, (5-(2-chloro-6-methoxyquinolin-3-yl)-3-(3,4-dimethoxyphenyl)-4,5-dihydro-1H-pyrazol-1-yl)(2-chlorophenyl)methanone] came in with an inhibition at 10 µM of less than 50%.

`COc1ccc(C2=NN(S(=O)(=O)c3ccccc3)C(c3ccccc3F)C2)cc1OC` (centres unmarked) [Example 58, 3-(3,4-dimethoxyphenyl)-5-(2-fluorophenyl)-1-(phenylsulfonyl)-4,5-dihydro-1H-pyrazole] came in with an inhibition at 10 µM of less than 50%.

As to `COc1ccc(C2=NN(C(C)=O)C(c3cc4ccccc4nc3Cl)C2)cc1OC` (centres unmarked) [Example 28, 1-(5-(2-chloroquinolin-3-yl)-3-(3,4-dimethoxyphenyl)-4,5-dihydro-1H-pyrazol-1-yl)ethanone], the inhibition at 10 µM was less than 50%.

Consider `COc1ccc(C2=NN(C(=O)CCC(=O)O)C(c3ccc(Cl)cc3)C2)cc1OC` (centres unmarked) [Example 70, 4-(5-(4-chlorophenyl)-3-(3,4-dimethoxyphenyl)-4,5-dihydro-1H-pyrazol-1-yl)-4-oxobutanoic acid], for which the inhibition at 10 µM was less than 50%.

In turn, `COc1ccc(C2=NN(C(=O)c3ccc(Br)o3)C(c3ccc(N(C)C)cc3)C2)cc1OC` (centres unmarked) [Example 81, (5-bromofuran-2-yl)(3-(3,4-dimethoxyphenyl)-5-(4-(dimethylamino)phenyl)-4,5-dihydro-1H-pyrazol-1-yl)methanone] returned an inhibition at 10 µM of less than 50%.

In turn, `COc1ccc(C2=NN(C(=O)c3ccccc3Cl)C(c3ccccc3Cl)C2)cc1OC` (centres unmarked) [Example 35, (2-chlorophenyl)(5-(2-chlorophenyl)-3-(3,4-dimethoxyphenyl)-4,5-dihydro-1H-pyrazol-1-yl)methanone] gave an inhibition at 10 µM of less than 50%.

In the case of `COc1ccc(C2=NN(C(=O)CCC(=O)O)C(c3ccccc3)C2)cc1OC` (centres unmarked) [Example 99, 4-(3-(3,4-dimethoxyphenyl)-5-phenyl-4,5-dihydro-1H-pyrazol-1-yl)-4-oxobutanoic acid], the inhibition at 10 µM is less than 50%.

The compound `COc1ccc(C2=NN(C(C)=O)C(c3ccccc3F)C2)cc1OC` (centres unmarked) [Example 104, 1-(3-(3,4-dimethoxyphenyl)-5-(2-fluorophenyl)-4,5-dihydro-1H-pyrazol-1-yl)ethanone] displayed an inhibition at 10 µM of less than 50%.

Turning to `COc1ccc(C2=NN(C(=O)CCC(=O)O)C(c3ccccc3OC)C2)cc1OC` (centres unmarked) [Example 98, 4-(3-(3,4-dimethoxyphenyl)-5-(2-methoxyphenyl)-4,5-dihydro-1H-pyrazol-1-yl)-4-oxobutanoic acid], the inhibition at 10 µM was less than 50%.

`COc1ccc(C2=NN(C(C)=O)C(c3ccc(OC)c(OC)c3)C2)cc1OC` (centres unmarked) [Example 100, 1-(3,5-bis(3,4-dimethoxyphenyl)-4,5-dihydro-1H-pyrazol-1-yl)ethanone] displayed an inhibition at 10 µM of less than 50%.

Turning to `COc1ccc(C2=NN(S(C)(=O)=O)C(c3ccc(C)cc3)C2)cc1OC` (centres unmarked) [Example 13, 3-(3,4-dimethoxyphenyl)-1-(methylsulfonyl)-5-p-tolyl-4,5-dihydro-1H-pyrazole], the inhibition at 10 µM was less than 50%.

As for `COc1ccc(C2=NN(C(=O)c3ccc(Br)o3)C(c3ccc(F)cc3)C2)cc1OC` (centres unmarked) [Example 46, (5-bromofuran-2-yl)(3-(3,4-dimethoxyphenyl)-5-(4-fluorophenyl)-4,5-dihydro-1H-pyrazol-1-yl)methanone], the inhibition at 10 µM was not below 50%.

`COc1ccc(C2=NN(C(=O)c3cc(OC)c(OC)c(OC)c3)C(c3ccccc3F)C2)cc1OC` (centres unmarked) [Example 79, (3-(3,4-dimethoxyphenyl)-5-(2-fluorophenyl)-4,5-dihydro-1H-pyrazol-1-yl)(3,4,5-trimethoxyphenyl)methanone] showed an inhibition at 10 µM not below 50%.

For the compound `COc1ccc(C2=NN(C(=O)CCC(=O)O)C(c3cc4cccc(C)c4nc3Cl)C2)cc1OC` (centres unmarked) [Example 5, 4-(5-(2-chloro-8-methylquinolin-3-yl)-3-(3,4-dimethoxyphenyl)-4,5-dihydro-1H-pyrazol-1-yl)-4-oxobutanoic acid], the inhibition at 10 µM is less than 50%.

`COc1ccc(C2=NN(C(=O)CCCC(=O)O)C(c3ccc(C)cc3)C2)cc1OC` (centres unmarked) [Example 96, 5-(3-(3,4-dimethoxyphenyl)-5-p-tolyl-4,5-dihydro-1H-pyrazol-1-yl)-5-oxopentanoic acid]: the inhibition at 10 µM was less than 50%.

`COc1ccc(C2CC(c3ccc(OC)c(OC)c3)=NN2C(=O)c2ccccc2Cl)cc1` (centres unmarked) [Example 33, (2-chlorophenyl)(3-(3,4-dimethoxyphenyl)-5-(4-methoxyphenyl)-4,5-dihydro-1H-pyrazol-1-yl)methanone]: the inhibition at 10 µM was not below 50%.

For the compound `COc1ccc(C2=NN(C(C)=O)C(c3ccccc3)C2)cc1OC` (centres unmarked) [Example 106, 1-(3-(3,4-dimethoxyphenyl)-5-phenyl-4,5-dihydro-1H-pyrazol-1-yl)ethanone], the inhibition at 10 µM was less than 50%.

For the compound `COc1ccc(C2=NN(C(=O)c3cccs3)C(c3cccc(OC)c3OC)C2)cc1OC` (centres unmarked) [Example 38, (5-(2,3-dimethoxyphenyl)-3-(3,4-dimethoxyphenyl)-4,5-dihydro-1H-pyrazol-1-yl)(thiophen-2-yl)methanone], the inhibition at 10 µM is not below 50%.
